Source: patent publication US9586951B2 (FUJIFILM Corporation, priority 2013, dated 2017)

Key:
[1] = test system: human non-small cell lung cancer cell line NCI-H460; assay: Cell proliferation inhibition test by sensitivity-enhancing to ionizing radiation (Cell Titer Glo); assay type: cell-based; settings: Homo sapiens, NCI-H460, 120 h, concentration in which SER became 2; NCI-H460 cells, ionizing radiation 2 Gy, cultured 120 hour
Method: A human non-small cell lung cancer cell line NCI-H460 (ATCC company) was adjusted so as to be 2×10^3 cells/mL in a RPMI-1640 medium containing penicillin/streptomycin and FBS having a final concentration of 10%, and this was seeded by 100 μL per well in 96-well CellBIND® plates (Corning International Inc.). After 24 hours, the medium of cells was replaced with 100 μL of a medium including serially diluted liquid of the test compound or DMSO having a final concentration of 0.1%. 30 minutes after the medium was replaced, half of the plates were irradiated with ionizing radiation 2 Gy (Faxitron Bioptics, LLC, RX-650 type). The cells of the plates irradiated with ionizing radiation and the plates not being irradiated with ionizing radiation were cultured at 37° C. for 120 hour in 5% CO2. After a Cell Titer Glo reaction liquid of an equal volume was added to each well, the amount of luminescence was measured, according to the instruction book of Cell Titer Glo (Promega Corporation). Since the amount of luminescence is proportional to the ATP concentration in cells, the amount of luminescence was used as an indicator of the number of viable cells. Sensitivity-enhancing effects (SER) to ionizing radiation by the test compound was calculated by the following equation. SER=(amount of luminescence of wells including DMSO having a final concentration of 0.1% in the plates irradiated with ionizing radiation×amount of luminescence of wells including a compound in the plates not being irradiated with ionizing radiation)/(amount of luminescence of wells including the test compound in the plates irradiated with ionizing radiation×amount of luminescence of wells including DMSO having a final concentration of 0.1% in the plates not being irradiated with ionizing radiation)
SER at each compound concentration was plotted by nonlinear regression fit (FitModel (205)) by a sigmoidal dose-response equation using XLfit software (IDBS), and the concentration (SER2) in which SER became 2 was calculated.

ATM = target: T1, ATM (Homo sapiens, UniProt Q13315); assay: ATM inhibition test (phosphorylation of Chk2 generated by ionizing radiation, AlphaScreen SureFire); assay type: cell-based; settings: phosphorylated Chk2 in NCI-H460 cells, ionizing radiation 8Gy, 1 hour after test compound treatment; read-out: ATM inhibitory activity
T1 construct: detecting phosphorylation of Chk2 in a human non-small cell lung cancer cell line NCI-H460 (ATCC company); host or cells: NCI-H460 human non-small cell lung cancer cells
How it was run: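 Human NCI-H460 lung cancer cells were treated with compound for 1 h, then irradiated at 8Gy and incubated 1 h at 37° C. Phospho-Chk2 was quantified by AlphaScreen SureFire; inhibition % was normalised between irradiated untreated and non-irradiated untreated wells.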

T1 sequence (Q13315 whole entry): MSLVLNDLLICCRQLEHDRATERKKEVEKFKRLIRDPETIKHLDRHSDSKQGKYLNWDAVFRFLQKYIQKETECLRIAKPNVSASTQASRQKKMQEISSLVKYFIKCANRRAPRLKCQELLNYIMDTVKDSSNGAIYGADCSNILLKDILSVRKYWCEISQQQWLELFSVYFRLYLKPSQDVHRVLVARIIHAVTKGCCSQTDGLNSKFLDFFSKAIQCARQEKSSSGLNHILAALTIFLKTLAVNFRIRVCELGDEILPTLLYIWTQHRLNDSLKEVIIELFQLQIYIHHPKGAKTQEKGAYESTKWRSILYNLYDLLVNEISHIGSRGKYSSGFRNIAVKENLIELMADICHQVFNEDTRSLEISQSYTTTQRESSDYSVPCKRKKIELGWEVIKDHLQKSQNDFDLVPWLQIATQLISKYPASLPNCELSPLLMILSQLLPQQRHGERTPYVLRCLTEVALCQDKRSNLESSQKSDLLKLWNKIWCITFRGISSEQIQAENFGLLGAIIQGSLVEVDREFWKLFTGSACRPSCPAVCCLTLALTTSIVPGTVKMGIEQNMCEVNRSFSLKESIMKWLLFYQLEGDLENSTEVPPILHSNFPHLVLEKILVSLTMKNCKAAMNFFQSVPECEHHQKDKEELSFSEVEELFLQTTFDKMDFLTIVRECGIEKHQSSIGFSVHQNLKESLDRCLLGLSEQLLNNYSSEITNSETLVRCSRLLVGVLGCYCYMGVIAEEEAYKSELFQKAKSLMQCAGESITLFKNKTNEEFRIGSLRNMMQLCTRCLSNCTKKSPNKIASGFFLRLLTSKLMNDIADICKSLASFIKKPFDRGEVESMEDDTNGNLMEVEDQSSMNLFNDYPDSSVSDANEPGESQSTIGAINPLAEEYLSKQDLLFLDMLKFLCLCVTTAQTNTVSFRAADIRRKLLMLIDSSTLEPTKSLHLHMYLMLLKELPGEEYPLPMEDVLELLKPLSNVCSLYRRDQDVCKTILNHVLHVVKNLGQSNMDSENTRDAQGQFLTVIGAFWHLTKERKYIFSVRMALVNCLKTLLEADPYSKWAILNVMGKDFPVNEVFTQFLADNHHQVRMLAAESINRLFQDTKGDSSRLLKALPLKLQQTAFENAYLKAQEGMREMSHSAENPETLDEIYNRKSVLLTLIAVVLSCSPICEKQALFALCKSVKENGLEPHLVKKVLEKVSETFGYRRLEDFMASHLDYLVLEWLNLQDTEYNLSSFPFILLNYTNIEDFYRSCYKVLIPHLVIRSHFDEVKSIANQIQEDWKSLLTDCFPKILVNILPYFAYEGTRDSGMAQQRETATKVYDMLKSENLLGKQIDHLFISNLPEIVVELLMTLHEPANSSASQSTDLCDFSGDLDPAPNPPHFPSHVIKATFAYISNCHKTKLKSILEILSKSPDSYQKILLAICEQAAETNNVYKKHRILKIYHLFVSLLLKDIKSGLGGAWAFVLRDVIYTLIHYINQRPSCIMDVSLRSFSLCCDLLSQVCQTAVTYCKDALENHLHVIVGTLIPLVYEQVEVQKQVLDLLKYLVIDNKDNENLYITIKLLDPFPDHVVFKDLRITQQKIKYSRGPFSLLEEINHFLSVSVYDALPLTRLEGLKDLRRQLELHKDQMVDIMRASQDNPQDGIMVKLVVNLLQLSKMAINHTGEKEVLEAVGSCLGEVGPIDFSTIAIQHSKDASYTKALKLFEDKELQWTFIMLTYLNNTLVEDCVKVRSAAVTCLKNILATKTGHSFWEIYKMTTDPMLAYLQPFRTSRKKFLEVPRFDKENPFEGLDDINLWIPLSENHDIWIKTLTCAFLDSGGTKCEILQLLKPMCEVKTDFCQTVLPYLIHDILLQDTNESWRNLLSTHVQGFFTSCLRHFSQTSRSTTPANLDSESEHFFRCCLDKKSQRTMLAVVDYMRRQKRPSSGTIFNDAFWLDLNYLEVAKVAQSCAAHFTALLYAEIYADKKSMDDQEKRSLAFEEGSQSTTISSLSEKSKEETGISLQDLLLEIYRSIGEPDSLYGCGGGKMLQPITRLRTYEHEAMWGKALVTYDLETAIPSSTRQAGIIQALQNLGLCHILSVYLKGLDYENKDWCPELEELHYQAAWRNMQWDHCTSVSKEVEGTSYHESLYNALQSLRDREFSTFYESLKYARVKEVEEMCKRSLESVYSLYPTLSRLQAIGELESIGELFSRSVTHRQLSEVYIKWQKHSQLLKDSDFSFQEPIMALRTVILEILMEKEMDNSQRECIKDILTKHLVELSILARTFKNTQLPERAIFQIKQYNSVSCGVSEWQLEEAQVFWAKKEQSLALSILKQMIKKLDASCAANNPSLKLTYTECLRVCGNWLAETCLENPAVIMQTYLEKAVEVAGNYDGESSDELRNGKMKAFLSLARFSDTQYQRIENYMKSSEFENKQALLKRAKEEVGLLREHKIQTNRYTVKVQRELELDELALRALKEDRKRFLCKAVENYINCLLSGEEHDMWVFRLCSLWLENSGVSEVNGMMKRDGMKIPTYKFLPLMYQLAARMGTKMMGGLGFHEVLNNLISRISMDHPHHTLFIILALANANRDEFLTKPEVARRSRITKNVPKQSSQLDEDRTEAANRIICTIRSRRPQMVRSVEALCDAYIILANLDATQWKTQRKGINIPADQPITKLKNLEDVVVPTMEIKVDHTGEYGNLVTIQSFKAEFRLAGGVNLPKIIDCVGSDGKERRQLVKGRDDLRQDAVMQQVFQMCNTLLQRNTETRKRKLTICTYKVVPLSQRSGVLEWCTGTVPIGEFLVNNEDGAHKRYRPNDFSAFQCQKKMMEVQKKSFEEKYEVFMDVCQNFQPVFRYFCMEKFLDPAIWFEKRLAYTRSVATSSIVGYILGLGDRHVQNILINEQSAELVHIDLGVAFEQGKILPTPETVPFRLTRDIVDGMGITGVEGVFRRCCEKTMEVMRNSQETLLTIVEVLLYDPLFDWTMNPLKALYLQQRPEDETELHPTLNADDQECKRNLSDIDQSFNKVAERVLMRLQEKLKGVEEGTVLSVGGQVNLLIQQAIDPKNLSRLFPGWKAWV

| Structure (SMILES) | IC50 (ATM) | SER2 (concentration at which the radiation sensitivity-enhancement ratio reaches 2) [1] |
| --- | --- | --- |
| O=c1cc(N2CCOCC2)cc(-c2cccc3c2Sc2ccc(NC4CCCC4N4CCOCC4)cc2S3)[nH]1 (single isomer, unassigned) [Example 1-16-1-2, 4-morpholino-6-(7-((2-morpholinocyclopentyl)amino)thianthren-1-yl)pyridin-2(1H)-one] | < 100 nM | < 100 nM |
| COc1ccnc(C(C)Nc2ccc3c(c2)Cc2cccc(-c4cc(N5CCOCC5)cc(=O)[nH]4)c2O3)c1 (stereo not shown) [Example 2-14-20, 6-(7-((1-(4-Methoxypyridin-2-yl)ethyl)amino)-9H-xanthen-4-yl)-4-morpholino pyridin-2(1H)-one] | < 100 nM | < 100 nM |
| O=c1cc(N2CCOCC2)cc(-c2cccc3c2Sc2ccc(N[C@@H]4CCCC[C@@H]4N4CCOCC4)cc2S3)[nH]1 [Example 1-48-2, 4-Morpholino-6-(7-(((1R,2S)-2-morpholinocyclohexyl)amino)thianthren-1-yl)pyridin-2(1H)-one] | < 100 nM | < 100 nM |
| Cc1ccc(C(CCCN(C)C)Nc2ccc3c(c2)Sc2cccc(-c4cc(N5CCOCC5)cc(=O)[nH]4)c2S3)nc1 (single isomer, unassigned) [Example 1-51-3, 6-(7-((4-(Dimethylamino)-1-(5-methylpyridin-2-yl)butyl)amino)thianthren-1-yl)-4-morpholino pyridin-2(1H)-one] | < 100 nM | 100 to 500 nM |
| Cc1ccc(C(Nc2ccc3c(c2)Sc2cccc(-c4cc(N5CCOCC5)cc(=O)[nH]4)c2S3)C2CN(C)CCO2)nc1 (single isomer, unassigned) [Example 1-52-1, 6-(7-(((4-methylmorpholin-2-yl)(5-methylpyridin-2-yl)methyl)amino)thianthren-1-yl)-4-morpholinopyridin-2(1H)-one] | < 100 nM | < 100 nM |
| CC(Nc1ccc2c(c1)Cc1cccc(-c3cc(N4CCOCC4)cc(=O)[nH]3)c1O2)c1cccc(F)n1 (stereo not shown) [Example 2-14-21, 6-(7-((1-(6-Fluoropyridin-2-yl)ethyl)amino)-9H-xanthen-4-yl)-4-morpholino pyridin-2(1H)-one] | < 100 nM | 100 to 500 nM |
| CNc1ncc(CNc2ccc3c(c2)Cc2cccc(-c4cc(N5CCOCC5)cc(=O)[nH]4)c2O3)cn1 [Example 2-2-16, 6-(7-(((2-(Methylamino)pyrimidin-5-yl)methyl)amino)-9H-xanthen-4-yl)-4-morpholino pyridin-2(1H)-one] | 100 to 500 nM | 100 to 500 nM |
| COC[C@H](CN1CCO[C@@H](C)C1)Nc1ccc2c(c1)Sc1cccc(-c3cc(N4CCOCC4)cc(=O)[nH]3)c1S2 [Example 1-46-6, 6-(7-(((S)-1-Methoxy-3-((S)-2-methylmorpholino)propan-2-yl)amino)thianthren-1-yl)-4-morpholino pyridin-2(1H)-one] | < 100 nM | < 100 nM |
| COC[C@H](CN1CCOC[C@@H]1C)Nc1ccc2c(c1)Sc1cccc(-c3cc(N4CCOCC4)cc(=O)[nH]3)c1S2 [Example 1-46-5, 6-(7-(((S)-1-Methoxy-3-((S)-3-methylmorpholino)propan-2-yl)amino)thianthren-1-yl)-4-morpholino pyridin-2(1H)-one] | < 100 nM | 100 to 500 nM |
| Cc1cc(C(C)Nc2ccc3c(c2)Sc2cccc(-c4cc(N5CCOCC5)cc(=O)[nH]4)c2S3)ncn1 (stereo not shown) [Example 1-12-75, 6-(7-((1-(6-Methylpyrimidin-4-yl)ethyl)amino)thianthren-1-yl)-4-morpholino pyridin-2 (1H)-one] | < 100 nM | 100 to 500 nM |
| CN(C)c1ncc(CNc2ccc3c(c2)Sc2cccc(-c4cc(N5CCOCC5)cc(=O)[nH]4)c2S3)cn1 [Example 1-12-11, 6-(7-(((2-(Dimethylamino)pyrimidin-5-yl)methyl)amino)thianthren-1-yl)-4-morpholino pyridin-2(1H)-one] | < 100 nM | 100 to 500 nM |
| O=c1cc(N2CCOCC2)cc(-c2cccc3c2Sc2ccc(NC4CCCN(Cc5cccnc5)C4)cc2S3)[nH]1 (stereo not shown) [Example 1-24-2, 4-Morpholine-6-(7-((1-(pyridin-3-ylmethyl)piperidin-3-yl)amino)thianthren-1-yl)pyridin-2 (1H)-one] | < 100 nM | 100 to 500 nM |
| COc1cnc(C(C)Nc2ccc3c(c2)Cc2cccc(-c4cc(N5CCOCC5)cc(=O)[nH]4)c2O3)cn1 (stereo not shown) [Example 2-14-51, 6-(7-((1-(5-Methoxypyrazin-2-yl)ethyl)amino)-9H-xanthen-4-yl)-4-morpholino pyridin-2(1H)-one] | < 100 nM | 100 to 500 nM |
| COc1ccnc(CNc2ccc3c(c2)Cc2cccc(-c4cc(N5CCOCC5)cc(=O)[nH]4)c2O3)c1 [Example 2-2-38, 6-(7-(((4-Methoxypyridin-2-yl)methyl)amino)-9H-xanthen-4-yl)-4-morpholino pyridin-2(1H)-one] | < 100 nM | 100 to 500 nM |
| Cc1cnc(C(C)Nc2ccc3c(c2)Sc2cccc(-c4cc(N5CCOCC5)cc(=O)[nH]4)c2S3)nc1 (stereo not shown) [Example 1-12-70, 6-(7-((1-(5-Methylpyrimidin-2-yl)ethyl)amino)thianthren-1-yl)-4-morpholino pyridin-2(1H)-one] | < 100 nM | < 100 nM |
| Cc1ccc(C(CCCN(C)C)Nc2ccc3c(c2)Sc2cccc(-c4cc(N5CCOCC5)cc(=O)[nH]4)c2S3)nc1 (stereo not shown) [Example 1-50-7, 6-(7-((4-(Dimethylamino)-1-(5-methylpyridin-2-yl)butyl)amino)thianthren-1-yl)-4-morpholino pyridin-2(1H)-one] | < 100 nM | 100 to 500 nM |

More lines, main results first:

| IC50 (ATM) | Structure (SMILES) | SER2 (concentration at which the radiation sensitivity-enhancement ratio reaches 2) [1] |
| --- | --- | --- |
| < 100 nM | O=c1cc(N2CCOCC2)cc(-c2cccc3c2Oc2ccc(NCc4ccc(F)nc4)cc2S3)[nH]1 [Example 4-8-24, 6-(8-(((6-Fluoropyridin-3-yl)methyl)amino)phenoxathiin-4-yl)-4-morpholino pyridin-2(1H)-one] | 100 to 500 nM |
| < 100 nM | O=c1cc(N2CCOCC2)cc(-c2cccc3c2Oc2ccc(NCc4cccc(Cl)n4)cc2S3)[nH]1 [Example 4-4-20, 6-(8-(((6-Chloropyridin-2-yl)methyl)amino)phenoxathiin-4-yl)-4-morpholino pyridin-2(1H)-one] | 100 to 500 nM |
| < 100 nM | COc1ncc(CNc2ccc3c(c2)Sc2cccc(-c4cc(N5CCOCC5)cc(=O)[nH]4)c2O3)cc1F [Example 4-4-14, 6-(8-(((5-Fluoro-6-methoxypyridin-3-yl)methyl)amino)phenoxathiin-4-yl)-4-morpholino pyridin-2(1H)-one] | 100 to 500 nM |
| 100 to 500 nM | Cc1cccc(C(CO)Nc2ccc3c(c2)Cc2cccc(-c4cc(N5CCOCC5)cc(=O)[nH]4)c2O3)n1 (single isomer, unassigned) [Example 2-14-92-2, 6-(7-((2-hydroxy-1-(6-methylpyridin-2-yl)ethyl)amino)-9H-xanthen-4-yl)-4-morpholinopyridin-2(1H)-one] | < 100 nM |
| < 100 nM | O=c1cc(N2CCOCC2)cc(-c2cccc3c2Oc2ccc(NCc4cc(Cl)ccn4)cc2S3)[nH]1 [Example 4-4-2, 6-(8-(((4-Chloropyridin-2-yl)methyl)amino)phenoxathiin-4-yl)-4-morpholino pyridin-2(1H)-one] | 100 to 500 nM |
| < 100 nM | O=c1cc(N2CCOCC2)cc(-c2c(F)ccc3c2Oc2ccc(NCc4cccc(Cl)n4)cc2C3)[nH]1 [Example 2-46-1, 6-(7-(((6-Chloropyridin-2-yl)methyl)amino)-3-fluoro-9H-xanthen-4-yl)-4-morpholinopyridin-2(1H)-one] | < 100 nM |
| < 100 nM | N#Cc1ccnc(CNc2ccc3c(c2)Sc2cccc(-c4cc(N5CCOCC5)cc(=O)[nH]4)c2O3)c1 [Example 4-4-28, 2-(((6-(4-Morpholino-6-oxo-1,6-dihydropyridin-2-yl)phenoxathiin-2-yl)amino)methyl) isonicotinonitrile] | 100 to 500 nM |
